The source of these data is paper PMC10539350 (Scientific Reports, 2023).

Structures are written as SMILES. Values after ≈ are worked out from the molar mass of the structure shown.

The test system of the first test is M. tuberculosis SIRE Ciprofloxacin resistant 22/22.
Test: not given
Format: cell-based, Mycobacterium tuberculosis. Further details: unit not given beside the values.
Conditions: not given
Regarding `CC(=O)NC[C@H]1CN(c2ccc(N3CCOCC3)c(F)c2)C(=O)O1` [Linezolid, reference compound], the “MIC for reference drug in the presence of derivative 6” value was found to be 4.

For the molecule `O=C(O)c1cn(C2CC2)c2cc(N3CCNCC3)c(F)cc2c1=O` [Ciprofloxacin, reference compound], the “MIC for reference drug in the presence of derivative 6” value came to 8.

A further test shares this test system. As to the kind of experiment: tuberculostatic activity, broth microdilution MIC (Alamar blue). Format: cell-based, Mycobacterium tuberculosis.
Conditions: not given
Background: Broth dilution looks for growth in wells or tubes with falling amounts of substance.
With `CO[C@H]1/C=C/O[C@@]2(C)Oc3c(C)c(O)c4c(O)c(c(/C=N/N5CCN(C)CC5)c(O)c4c3C2=O)NC(=O)/C(C)=C\C=C\[C@H](C)[C@H](O)[C@@H](C)[C@@H](O)[C@@H](C)[C@H](OC(C)=O)[C@@H]1C` [Rifampicin, reference compound], the activity in words entry was “no activity”.

Still in this test, the particulars now being: Mycobacterium tuberculosis, read-out: Minimal inhibitory concentration.
For the molecule `CC(=O)NC[C@H]1CN(c2ccc(N3CCOCC3)c(F)c2)C(=O)O1` [Linezolid, reference compound], the MIC amounted to 8 µg/mL (≈ 23.7 µM).

For the molecule `CO[C@H]1/C=C/O[C@@]2(C)Oc3c(C)c(O)c4c(O)c(c(/C=N/N5CCN(C)CC5)c(O)c4c3C2=O)NC(=O)/C(C)=C\C=C\[C@H](C)[C@H](O)[C@@H](C)[C@@H](O)[C@@H](C)[C@H](OC(C)=O)[C@@H]1C` [Rifampicin, reference compound], the MIC came out at 256 µg/mL (≈ 311 µM).

The test is the same for the next values; noted with them: Mycobacterium tuberculosis; read-out: Minimal inhibitory concentration.
Turning to `Cc1ccc(C(C)C)c(OC(=O)CCN2CCN(c3cc4c(cc3F)c(=O)c(C(=O)O)cn4C3CC3)CC2)c1` [Compound 11], the MIC worked out at 64 µg/mL (≈ 119 µM).

Consider `Cc1ccc(C(C)C)c(OC(=O)CCCOC(=O)c2cn(C3CC3)c3cc(N4CCN(CCCC(=O)Oc5cc(C)ccc5C(C)C)CC4)c(F)cc3c2=O)c1` [Compound 15], for which the MIC came to 256 µg/mL (≈ 333 µM).

As for `Cc1ccc(C(C)C)c(OC(=O)CCCCCOC(=O)c2cn(C3CC3)c3cc(N4CCN(CCCCCC(=O)Oc5cc(C)ccc5C(C)C)CC4)c(F)cc3c2=O)c1` [Compound 16], the MIC was determined as 256 µg/mL (≈ 311 µM).

On to `CC1CCC(C(C)C)C(OC(=O)CCCCN2CCN(c3cc4c(cc3F)c(=O)c(C(=O)O)cn4C3CC3)CC2)C1` (stereo not drawn) [Compound 5], for which the MIC was 16 µg/mL (≈ 28.1 µM).

For the molecule `NNC(=O)c1ccncc1` [Isoniazid, reference compound], the MIC stood at 32 µg/mL (≈ 233 µM).

Consider `CC1CCC(C(C)C)C(OC(=O)CN2CCN(c3cc4c(cc3F)c(=O)c(C(=O)O)cn4C3CC3)CC2)C1` (stereo not drawn) [Compound 2], for which the MIC turned out to be 16 µg/mL (≈ 30.3 µM).

As to `CC(C)[C@@H]1CC[C@@H](C)C[C@H]1OC(=O)CCCCCN1CCN(c2cc3c(cc2F)c(=O)c(C(=O)O)cn3C2CC2)CC1` [Compound 6, 1‐cyclopropyl‐6‐fluoro‐7‐{4‐[6‐((1R,2S,5R)‐2‐isopropyl‐5‐methylcyclohexyloxy)‐6‐oxohexyl]piperazin‐1‐yl}‐4‐oxo‐1,4‐dihydroquinoline‐3‐carboxylic acid], the MIC was determined as 8 µg/mL (≈ 13.7 µM).

Regarding `Cc1ccc(C(C)C)c(OC(=O)CN2CCN(c3cc4c(cc3F)c(=O)c(C(=O)O)cn4C3CC3)CC2)c1` [Compound 10], the MIC turned out to be 128 µg/mL (≈ 245 µM).

In the case of `Cc1ccc(C(C)C)c(OC(=O)CCCCN2CCN(c3cc4c(cc3F)c(=O)c(C(=O)O)cn4C3CC3)CC2)c1` [Compound 13], the MIC is 32 µg/mL (≈ 56.8 µM).

With `CC1CCC(C(C)C)C(OC(=O)CCCCCOC(=O)c2cn(C3CC3)c3cc(N4CCN(CCCCCC(=O)OC5CC(C)CCC5C(C)C)CC4)c(F)cc3c2=O)C1` (stereo not drawn) [Compound 8], the MIC turned out to be 256 µg/mL (≈ 306 µM).

Regarding `Cc1ccc(C(C)C)c(OCC(=O)N2CCN(c3cc4c(cc3F)c(=O)c(C(=O)O)cn4C3CC3)CC2)c1` [Compound 9], the MIC is 128 µg/mL (≈ 245 µM).

In the case of `CC1CCC(C(C)C)C(OC(=O)CCCCOC(=O)c2cn(C3CC3)c3cc(N4CCN(CCCCC(=O)OC5CC(C)CCC5C(C)C)CC4)c(F)cc3c2=O)C1` (stereo not drawn) [Compound 7], the MIC was found to be 256 µg/mL (≈ 317 µM).

As for `CC[C@@H](CO)NCCN[C@@H](CC)CO` [Ethambutol, reference compound], the MIC came out at 4 µg/mL (≈ 19.6 µM).

For the molecule `CC1CCC(C(C)C)C(OC(=O)CCN2CCN(c3cc4c(cc3F)c(=O)c(C(=O)O)cn4C3CC3)CC2)C1` (stereo not drawn) [Compound 3], the MIC is 16 µg/mL (≈ 29.5 µM).

On to `CC1CCC(C(C)C)C(OCC(=O)N2CCN(c3cc4c(cc3F)c(=O)c(C(=O)O)cn4C3CC3)CC2)C1` (stereo not drawn) [Compound 1], for which the MIC amounted to 32 µg/mL (≈ 60.6 µM).

Consider `[H]/N=C(/N)N[C@H]1[C@H](O)[C@@H](O)[C@H](O[C@@H]2O[C@@H](C)[C@](O)(C=O)[C@H]2O[C@@H]2O[C@@H](CO)[C@H](O)[C@@H](O)[C@@H]2NC)[C@@H](N/C(N)=N\[H])[C@@H]1O` [Streptomycin, reference compound], for which the MIC turned out to be 32 µg/mL (≈ 55 µM).

Take `CC1CCC(C(C)C)C(OC(=O)CCCN2CCN(c3cc4c(cc3F)c(=O)c(C(=O)O)cn4C3CC3)CC2)C1` (stereo not drawn) [Compound 4]: the MIC turned out to be 16 µg/mL (≈ 28.8 µM).

Take `Cc1ccc(C(C)C)c(OC(=O)CCCCCN2CCN(c3cc4c(cc3F)c(=O)c(C(=O)O)cn4C3CC3)CC2)c1` [Compound 14]: the MIC turned out to be 16 µg/mL (≈ 27.7 µM).

Turning to `Cc1ccc(C(C)C)c(OC(=O)CCCN2CCN(c3cc4c(cc3F)c(=O)c(C(=O)O)cn4C3CC3)CC2)c1` [Compound 12], the MIC came to 32 µg/mL (≈ 58.2 µM).
